Data from ChEMBL document CHEMBL1131702, “Synthesis and biological activity of KCB-328 and its analogues: novel class III antiarrhythmic agents with little reverse frequency dependence” (1999).

Legend:
Cavia porcellus [1] = species on record: Cavia porcellus; assay: Effective refractory period of contractile response in isolated guinea-pig papillary muscles at 3 Hz and 1 uM.; format: functional, Muscle tissue
Cavia porcellus [2] = species on record: Cavia porcellus; assay: Effective refractory period of contractile response in isolated guinea-pig papillary muscles at 1 Hz and 1 uM.; format: functional, Muscle tissue
[3] = Ratio of ERPc prolongation was measured as percent change at 3 Hz/1 Hz; format: functional
Cavia porcellus [4] = species on record: Cavia porcellus; assay: Effect of 1 uM of compound, on action potential duration (APD) was determined in isolated guinea-pig papillary muscles at 1 Hz.; format: functional, Muscle tissue
Cavia porcellus [5] = species on record: Cavia porcellus; assay: Effect of 1 uM of compound, on action potential duration (APD) was determined in isolated guinea-pig papillary muscles at 3 Hz; format: functional, Muscle tissue
[6] = Ratio of APD prolongation was measured as percent change at 3 Hz/1 Hz; format: functional

SMILES | Delta ERPc (Cavia porcellus [1]) [%] | Delta ERPc (Cavia porcellus [2]) [%] | Ratio [3] | Delta APD90 (Cavia porcellus [4]) [%] | Delta APD90 (Cavia porcellus [5]) [%] | Ratio [6]
COc1ccc(CCN(C)CCOc2ccc(NS(C)(=O)=O)cc2I)cc1OC | 21.2 | 28.9 | 73 | – | – | –
COc1ccc(CCN(C)CCOc2ccc(NS(C)(=O)=O)cc2Br)cc1OC | 25.2 | 32.8 | 76 | – | – | –
COc1cc(C)c(CCN(C)CCOc2ccc(NS(C)(=O)=O)cc2-n2cccc2)cc1OC | 26.3 | 32.1 | 81 | – | – | –
COc1ccc(CCN(C)CCOc2ccc(NS(C)(=O)=O)cc2NC(C)=O)cc1OC | 27.7 | 39.3 | 70 | – | – | –
COc1cc(N)c(CCN(C)CCOc2ccc(NS(C)(=O)=O)cc2-n2cccc2)cc1OC | 24.7 | 39.4 | 62 | – | – | –
Cc1cccc(CCN2CCC(C(=O)c3ccc(NS(C)(=O)=O)cc3)CC2)n1 | 30.2 | 41.8 | 71 | – | – | –
COc1ccc(CCN(C)CCOc2ccc(NS(C)(=O)=O)cc2OCc2ccccc2)cc1OC | 30 | 26.3 | 114 | – | – | –
COc1cc(CCN(C)CCOc2ccc(NS(C)(=O)=O)cc2Cl)c([N+](=O)[O-])cc1OC | 36.2 | 29.4 | 123 | – | – | –
COc1ccc(CCN(C)CCOc2ccc(NS(C)(=O)=O)cc2)cc1OC | 28.9 | 60.1 | 48 | – | – | –
COc1ccc(CCN(C)CCOc2ccc(NS(C)(=O)=O)cc2N)cc1OC | 32.6 | 31 | 105 | 33.3 | 28.6 | 86
COc1ccc(CCN(C)CCOc2ccc(NS(C)(=O)=O)cc2F)cc1OC | 25.9 | 34.5 | 75 | – | – | –
COc1ccc(CCN(C)CCOc2ccc(NS(C)(=O)=O)cc2Cl)cc1OC | 30.8 | 32.2 | 95 | – | – | –
COc1cc(Cl)c(CCN(C)CCOc2ccc(NS(C)(=O)=O)cc2Cl)cc1OC | 17.8 | 22.4 | 79 | – | – | –
COc1ccc(CCN(C)CCOc2ccc(NS(C)(=O)=O)cc2Nc2nccs2)cc1OC | 36.8 | 43.4 | 84 | – | – | –
COc1cc(C)c(CCN(C)CCOc2ccc(NS(C)(=O)=O)cc2Cl)cc1OC | 33.1 | 28 | 118 | 37.8 | 22.2 | 82
COc1ccc(CCN(C)CCOc2ccc(NS(C)(=O)=O)cc2[N+](=O)[O-])cc1OC | 25 | 33.3 | 75 | – | – | –
COc1ccc(CCN(C)CCOc2ccc(NS(C)(=O)=O)cc2C)cc1OC | 27.2 | 28.9 | 94 | – | – | –
COc1cc(N)c(CCN(C)CCOc2ccc(NS(C)(=O)=O)cc2Cl)cc1OC | 34.7 | 27.5 | 126 | – | – | –
CN(CCOc1ccc(NS(C)(=O)=O)cc1)CCc1ccc(NS(C)(=O)=O)cc1 [DOFETILIDE] | 30.8 | 49.9 | 65 | 45.6 | 26.8 | 59
COc1ccc(CCN(C)CCOc2ccc(NS(C)(=O)=O)cc2-n2cccc2)cc1OC | 40.1 | 31.2 | 128 | 26.4 | 26.2 | 99
